Results published in PubChem BioAssay (NCI).
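Five compound concentrations were applied to cells in 96-well plates for 48 hours; endpoints were derived by simple linear interpolation of the resulting dose-response curve. At the TGI there is no net growth.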

What was measured:
Assay in all cases: inhibition of tumour cell growth, NCI panel, 48 h
[1] = test system: HCC-2998 colon
[2] = test system: IGROV1 ovarian
[3] = test system: PC-3 prostate
[4] = test system: KM12 colon
[5] = test system: NCI-H226 lung
[6] = test system: HL-60(TB) leukemia
[7] = test system: K-562 leukemia
[8] = test system: ACHN renal
[9] = test system: SK-OV-3 ovarian
[10] = test system: RXF 393 renal
[11] = test system: OVCAR-4 ovarian
[12] = test system: MALME-3M melanoma
[13] = test system: LOX IMVI melanoma
[14] = test system: DU-145 prostate
[15] = test system: OVCAR-8 ovarian
[16] = test system: NCI-H522 lung
[17] = test system: SNB-19 CNS
[18] = test system: HCT-116 colon
[19] = test system: SF-539 CNS
[20] = test system: SK-MEL-28 melanoma
[21] = test system: SNB-75 CNS
[22] = test system: SF-295 CNS
[23] = test system: OVCAR-5 ovarian
[24] = test system: CCRF-CEM leukemia
[25] = test system: MDA-MB-435
[26] = test system: A549 NSCLC
[27] = test system: TK-10 renal
[28] = test system: RPMI-8226 leukemia
[29] = test system: SK-MEL-2 melanoma
[30] = test system: 786-0 renal
[31] = test system: NCI-H23 lung
[32] = test system: OVCAR-3 ovarian
[33] = test system: EKVX NSCLC
[34] = test system: SN12C renal
[35] = test system: HCT-15 colon
[36] = test system: MDA-N
[37] = test system: MDA-MB-231 breast
[38] = test system: HS 578T breast
[39] = test system: UACC-257 melanoma
[40] = test system: MCF7 breast
[41] = test system: UO-31 renal
[42] = test system: BT-549 breast
[43] = test system: CAKI-1 renal
[44] = test system: HOP-62 NSCLC
[45] = test system: U251 CNS
[46] = test system: T-47D breast
[47] = test system: SW-620 colon
[48] = test system: M14 melanoma
[49] = test system: SK-MEL-5 melanoma
[50] = test system: HT29 colon
[51] = test system: SF-268 CNS
[52] = test system: COLO 205 colon
[53] = test system: UACC-62 melanoma
[54] = test system: MOLT-4 leukemia
[55] = test system: NCI-H460 lung
[56] = test system: NCI/ADR-RES ovarian
[57] = test system: A498 renal
[58] = test system: HOP-92 NSCLC
[59] = test system: SR leukemia

O=C(O)CCSCc1ccccc1
TGI [1]: > 100 µM
TGI [2]: > 100 µM
TGI [3]: > 100 µM
TGI [4]: > 100 µM
TGI [5]: > 100 µM
TGI [6]: > 100 µM
TGI [7]: > 100 µM
TGI [8]: > 100 µM
TGI [9]: > 100 µM
TGI [10]: > 100 µM
TGI [11]: > 100 µM
TGI [12]: > 100 µM
TGI [13]: > 100 µM
TGI [14]: > 100 µM
TGI [15]: > 100 µM
TGI [16]: > 100 µM
TGI [17]: > 100 µM
TGI [18]: > 100 µM
TGI [19]: > 100 µM
TGI [20]: > 100 µM
TGI [21]: > 100 µM
TGI [22]: > 100 µM
TGI [23]: > 100 µM
TGI [24]: > 100 µM
TGI [25]: > 100 µM
TGI [26]: > 100 µM
TGI [27]: > 100 µM
TGI [28]: > 100 µM
TGI [29]: > 100 µM
TGI [30]: > 100 µM
TGI [31]: > 100 µM
TGI [32]: > 100 µM
TGI [33]: > 100 µM
TGI [34]: > 100 µM
TGI [35]: > 100 µM
TGI [36]: > 100 µM
TGI [37]: > 100 µM
TGI [38]: > 100 µM
TGI [39]: > 100 µM
TGI [40]: > 100 µM
TGI [41]: > 100 µM
TGI [42]: > 100 µM
TGI [43]: > 100 µM
TGI [44]: > 100 µM
TGI [45]: > 100 µM
TGI [46]: > 100 µM
TGI [47]: > 100 µM
TGI [48]: > 100 µM
TGI [49]: > 100 µM
TGI [50]: > 100 µM
TGI [51]: > 100 µM
TGI [52]: > 100 µM
TGI [53]: > 100 µM
TGI [54]: > 100 µM
TGI [55]: > 100 µM
TGI [56]: > 100 µM
TGI [57]: > 100 µM

CC1SCc2nc3ccccc3n21 (centres undefined)
TGI [1]: > 100 µM
TGI [2]: > 100 µM
TGI [3]: > 100 µM
TGI [4]: > 100 µM
TGI [5]: > 100 µM
TGI [6]: > 100 µM
TGI [7]: > 100 µM
TGI [8]: > 100 µM
TGI [9]: > 100 µM
TGI [10]: > 100 µM
TGI [11]: > 100 µM
TGI [12]: > 100 µM
TGI [13]: > 100 µM
TGI [14]: > 100 µM
TGI [15]: > 100 µM
TGI [16]: > 100 µM
TGI [17]: > 100 µM
TGI [18]: > 100 µM
TGI [19]: > 100 µM
TGI [20]: > 100 µM
TGI [21]: 83.3 µM
TGI [58]: > 100 µM
TGI [22]: > 100 µM
TGI [23]: > 100 µM
TGI [24]: > 100 µM
TGI [25]: > 100 µM
TGI [26]: > 100 µM
TGI [27]: > 100 µM
TGI [28]: > 100 µM
TGI [29]: > 100 µM
TGI [30]: > 100 µM
TGI [31]: > 100 µM
TGI [32]: > 100 µM
TGI [33]: > 100 µM
TGI [34]: > 100 µM
TGI [35]: > 100 µM
TGI [36]: > 100 µM
TGI [37]: > 100 µM
TGI [38]: > 100 µM
TGI [39]: > 100 µM
TGI [40]: > 100 µM
TGI [41]: > 100 µM
TGI [43]: > 100 µM
TGI [44]: > 100 µM
TGI [45]: > 100 µM
TGI [46]: > 100 µM
TGI [48]: > 100 µM
TGI [49]: > 100 µM
TGI [50]: > 100 µM
TGI [51]: > 100 µM
TGI [52]: > 100 µM
TGI [53]: > 100 µM
TGI [54]: > 100 µM
TGI [55]: > 100 µM
TGI [56]: > 100 µM
TGI [57]: > 100 µM

O=C1c2ccccc2-c2nnc3c(c21)-c1ccccc1C3
TGI [3]: > 100 µM
TGI [59]: > 100 µM
TGI [4]: > 100 µM
TGI [5]: > 100 µM
TGI [6]: > 100 µM
TGI [8]: 84.6 µM
TGI [9]: > 100 µM
TGI [10]: > 100 µM
TGI [12]: > 100 µM
TGI [14]: > 100 µM
TGI [15]: > 100 µM
TGI [16]: > 100 µM
TGI [17]: > 100 µM
TGI [18]: > 100 µM
TGI [19]: > 100 µM
TGI [21]: > 100 µM
TGI [58]: > 100 µM
TGI [22]: > 100 µM
TGI [23]: > 100 µM
TGI [24]: > 100 µM
TGI [25]: > 100 µM
TGI [26]: > 100 µM
TGI [28]: > 100 µM
TGI [29]: > 100 µM
TGI [30]: > 100 µM
TGI [31]: > 100 µM
TGI [33]: > 100 µM
TGI [34]: > 100 µM
TGI [35]: > 100 µM
TGI [36]: > 100 µM
TGI [37]: > 100 µM
TGI [38]: > 100 µM
TGI [39]: > 100 µM
TGI [40]: > 100 µM
TGI [41]: > 100 µM
TGI [43]: > 100 µM
TGI [45]: > 100 µM
TGI [46]: > 100 µM
TGI [47]: > 100 µM
TGI [48]: > 100 µM
TGI [49]: > 100 µM
TGI [50]: > 100 µM
TGI [51]: > 100 µM
TGI [52]: > 100 µM
TGI [53]: > 100 µM
TGI [54]: 80.8 µM
TGI [55]: > 100 µM
TGI [56]: > 100 µM

N#Cc1c(N2CCC(O)C2)c2ccccc2n2c1nc1ccccc12 (centres undefined)
TGI [1]: > 100 µM
TGI [2]: > 100 µM
TGI [3]: > 100 µM
TGI [4]: > 100 µM
TGI [6]: > 100 µM
TGI [8]: 42 µM
TGI [11]: > 100 µM
TGI [12]: > 100 µM
TGI [13]: > 100 µM
TGI [14]: > 100 µM
TGI [15]: > 100 µM
TGI [16]: > 100 µM
TGI [17]: > 100 µM
TGI [18]: > 100 µM
TGI [19]: > 100 µM
TGI [20]: > 100 µM
TGI [21]: 62.9 µM
TGI [58]: 95.7 µM
TGI [22]: > 100 µM
TGI [23]: > 100 µM
TGI [24]: > 100 µM
TGI [25]: > 100 µM
TGI [26]: > 100 µM
TGI [27]: > 100 µM
TGI [28]: > 100 µM
TGI [29]: > 100 µM
TGI [30]: 50.6 µM
TGI [31]: > 100 µM
TGI [32]: > 100 µM
TGI [33]: > 100 µM
TGI [34]: > 100 µM
TGI [35]: > 100 µM
TGI [36]: > 100 µM
TGI [37]: 60.1 µM
TGI [38]: > 100 µM
TGI [39]: > 100 µM
TGI [40]: > 100 µM
TGI [41]: > 100 µM
TGI [42]: > 100 µM
TGI [43]: > 100 µM
TGI [44]: 46.6 µM
TGI [46]: > 100 µM
TGI [47]: > 100 µM
TGI [48]: > 100 µM
TGI [49]: > 100 µM
TGI [50]: > 100 µM
TGI [51]: > 100 µM
TGI [52]: > 100 µM
TGI [53]: > 100 µM
TGI [54]: > 100 µM
TGI [55]: > 100 µM
TGI [56]: > 100 µM
TGI [57]: 95.5 µM
